Results reported in patent US8435928B2, “Herbicidal composition” (Ishihara Sangyo Kaisha, Ltd., priority 2007, dated 2013).

Experiments:
[1] = test system: crabgrass; assay: Test Example 7: foliar application of compound No. 2-1 wettable powder with surfactant, crabgrass; assay type: in vivo, Digitaria sanguinalis L.; details: 15 g a.i./ha wettable powder, 21st day
Excerpt: (§1) On the 21st day after the application, the state of growth of the plants was visually observed (growth inhibition rate (%)=0 (the same as the untreated plot) to 100 (complete kill)), and the results as shown in Tables b1 and b2 were obtained.
(§2) Upland field soil was put into a 1/1,000,000 ha pot, and seeds of crabgrass were sown and grown in a greenhouse. When crabgrass reached 4.0 to 5.0 leaf stage, a prescribed amount (15 g a.i./ha) of a wettable powder comprising compound No. 2-1 as an active ingredient, prepared in accordance with the above Example 1, was diluted with water corresponding to 300 L/ha (containing 0.05 vol % of a surfactant containing the POA alkyl ether phosphate), followed by foliar application. Further, for comparison, foliar application was carried out in the same manner by using a silicon surfactant (tradename: SILWETT L-77) at a concentration of 0.1 vol % instead of the above surfactant.
On the 21st day after the application, the state of growth of the plant was evaluated in the same manner as in Test Example 1, and the results as shown in Table b10 were obtained.

[2] = test system: crabgrass; assay: Test Example 9: foliar application of compound No. 2-39 wettable powder with surfactant, crabgrass; assay type: in vivo, Digitaria sanguinalis L.; details: 15 g a.i./ha wettable powder, 21st day
Excerpt: as §1
as §2, with “4.5” for “5.0”, “2-39” for “2-1”, “using” for “using a silicon surfactant (tradename:”, “L-77” for “L-77)”
On the 21st day after the application, the state of growth of the plant was evaluated in the same manner as in Test Example 1, and the results as shown in Table b13 were obtained.

[3] = test system: crabgrass (Digitaria sanguinalis L.); assay: Test Example 1: foliar application of compound No. 1 wettable powder with surfactant, visual growth inhibition, crabgrass; assay type: in vivo; details: 15 g a.i./ha wettable powder, 21st day
Procedure: (§3) Upland field soil was put into a 1/1,000,000 ha pot, and seeds of crabgrass (Digitaria sanguinalis L.) and velvetleaf (Abutilon theophrasti L.) were respectively sown and grown in a greenhouse. When crabgrass reached 4.2 to 5.0 leaf stage and velvetleaf reached 3.5 to 4.3 leaf stage, a prescribed amount (15 g a.i./ha) of a wettable powder comprising compound No. 1 as an active ingredient, prepared in accordance with the above Example 1, was diluted with water corresponding to 300 L/ha (containing 0.05 vol % of a surfactant containing the POA alkyl ether phosphate), followed by foliar application (the present invention). Further, for comparison, foliar application was carried out in the same manner by using an alkylaryl polyglycol ether surfactant (tradename: CITOWETT) at a concentration of 0.1 vol %, instead of the above surfactant (comparison).
as §1

[4] = test system: velvetleaf (Abutilon theophrasti L.); assay: Test Example 1: foliar application of compound No. 1 wettable powder with surfactant, visual growth inhibition, velvetleaf; assay type: in vivo; details: 15 g a.i./ha wettable powder, 21st day
Procedure: as §3, §1

[5] = test system: crabgrass (Digitaria sanguinalis L.); assay: Test Example 4: foliar application of compound No. 2-27 wettable powder with surfactant, crabgrass; assay type: in vivo; details: 15 g a.i./ha wettable powder, 21st day
Procedure: as §3, §1
(§4) The results as shown in Tables b6 and b7 were obtained in the same manner as in the above Test Example 1 except that a prescribed amount (15 g a.i./ha or 7 g a.i./ha) of a wettable powder comprising compound No. 2-27 as an active ingredient, prepared in accordance with the above Example 4, was used.

[6] = test system: velvetleaf (Abutilon theophrasti L.); assay: Test Example 4: foliar application of compound No. 2-27 wettable powder with surfactant, velvetleaf; assay type: in vivo; details: 7 g a.i./ha wettable powder, 21st day
Procedure: as §3, §1, §4

[7] = test system: crabgrass; assay: Test Example 11: foliar application of compound No. 4-3 wettable powder with surfactant, crabgrass; assay type: in vivo, Digitaria sanguinalis L.; details: 15 g a.i./ha wettable powder, 21st day
Excerpt: as §1
as §2, with “4-3” for “2-1”, “using” for “using a silicon surfactant (tradename:”, “L-77 (tradename)” for “L-77)”
On the 21st day after the application, the state of growth of the plant was evaluated in the same manner as in Test Example 1, and the results as shown in Table b16 were obtained.

[8] = test system: crabgrass (Digitaria sanguinalis L.); assay: Test Example 2: foliar application of compound No. 53 suspension concentrate with surfactant, crabgrass; assay type: in vivo; details: 15 g a.i./ha water-based suspension concentrate, 21st day
Procedure: as §3, §1
(§5) The results as shown in Tables b3 and b4 were obtained in the same manner as the above Test Example 1 except that a prescribed amount (15 g a.i./ha) of a water-based suspension concentrate comprising compound No. 53 as an active ingredient, prepared in accordance with the above Example 2, was used.

[9] = test system: velvetleaf (Abutilon theophrasti L.); assay: Test Example 2: foliar application of compound No. 53 suspension concentrate with surfactant, velvetleaf; assay type: in vivo; details: 15 g a.i./ha water-based suspension concentrate, 21st day
Procedure: as §3, §1, §5

[10] = test system: crabgrass; assay: Test Example 3: foliar application of compound No. 238 suspension concentrate with surfactant, crabgrass; assay type: in vivo, Digitaria sanguinalis L.; details: 30 g a.i./ha water-based suspension concentrate, 21st day
Excerpt: On the 21st day after the application, the state of growth of the plants was visually observed (growth inhibition rate (%)=0 (the same as the untreated plot) to 100 (complete kill)), and the results as shown in Tables b1 and b2 were obtained. Upland field soil was put into a 1/1,000,000 ha pot, and seeds of crabgrass were sown and grown in a greenhouse. When crabgrass reached 4.5 to 5.0 leaf stage, a prescribed amount (30 g a.i./ha) of a water-based suspension concentrate comprising compound No. 238 as an active ingredient, prepared in accordance with the above Example 6, was diluted with water corresponding to 300 L/ha (containing 0.05 vol % of a surfactant containing the POA alkyl ether phosphate), followed by foliar application. Further, for comparison, foliar application was carried out in the same manner by using CITOWETT (tradename) at a concentration of 0.3 vol %, instead of the above surfactant. On the 21st day after the application, the state of growth of the plant was evaluated in the same manner as in Test Example 1, and the results as shown in Table b5 were obtained.

[11] = test system: crabgrass; assay: Test Example 6: foliar application of compound No. 238 suspension concentrate with surfactant and optional oil or emulsifying agent, crabgrass; assay type: in vivo, Digitaria sanguinalis L.; details: 7 g a.i./ha suspension concentrate, ADEKA COL PS-440E 0.03 vol %, 20th day
Excerpt: as §1
Upland field soil was put into a 1/1,000,000 ha pot, and seeds of crabgrass were sown and grown in a greenhouse. When crabgrass reached 3.8 to 4.1 leaf stage, a prescribed amount (7 g a.i./ha) of a water-based suspension concentrate comprising compound No. 238 as an active ingredient, prepared in accordance with the above Example 3, was diluted with water corresponding to 300 L/ha (containing 0.03 vol % of a surfactant containing the POA alkyl ether phosphate and optionally having 0.03 vol % of a fatty acid ester, a hydrocarbon solvent or an emulsifying agent added), followed by foliar application. The fatty acid ester used here was AGNIQUE Me 18RD-F (tradename), the hydrocarbon solvent was Solvesso 150 (tradename) and the emulsifying agent was a mixture of a polyoxyethylene sorbitol tetraoleate, a polyoxyethylene castor oil and calcium dodecylbenzene sulfonate.
On the 20th day after the application, the state of growth of the plant was evaluated in the same manner as in Test Example 1, and the results as shown in Table b9 were obtained.

[12] = surfactant PHOSPHANOL RS-710 0.05 vol %, present invention
[13] = surfactant PLYSURF A219B 0.05 vol %, present invention
[14] = surfactant SILWETT L-77 0.1 vol %, comparison
[15] = surfactant ADECA COL PS-440E 0.05 vol %, present invention
[16] = surfactant NIKKOL DDP-8 0.05 vol %, present invention
[17] = surfactant PHOSPHANOL RS-410 0.05 vol %, present invention
[18] = surfactant CITOWETT 0.1 vol %, comparison
[19] = surfactant NIKKOL TDP-8 0.05 vol %, present invention

COC(=O)c1c(S(C)(=O)=O)ccc(C(=O)c2cnn(C)c2O)c1C [2-1]
Growth inhibition rate (%) of crabgrass [1, 12]: 75%
Growth inhibition rate (%) of crabgrass [1, 13]: 70%
Growth inhibition rate (%) of crabgrass [1, 14]: 10%

CCOCc1c(S(C)(=O)=O)ccc(C(=O)c2cnn(C)c2O)c1C [2-39]
Growth inhibition rate (%) of crabgrass [2, 15]: 93%
Growth inhibition rate (%) of crabgrass [2, 16]: 93%
Growth inhibition rate (%) of crabgrass [2, 17]: 70%
Growth inhibition rate (%) of crabgrass [2, 14]: 20%

CCSC(=O)Oc1c(C(=O)c2ccc(S(C)(=O)=O)c(C(=O)OC)c2C)cnn1C [Compound No. 1]
Growth inhibition rate (%) of crabgrass [3, 15]: 70%
Growth inhibition rate (%) of crabgrass [3, 18]: 50%
Growth inhibition rate (%) of crabgrass [3, 16]: 73%
Growth inhibition rate (%) of crabgrass [3, 13]: 60%
Growth inhibition rate (%) of velvetleaf [4, 15]: 93%
Growth inhibition rate (%) of velvetleaf [4, 18]: 73%
Growth inhibition rate (%) of velvetleaf [4, 16]: 93%
Growth inhibition rate (%) of velvetleaf [4, 13]: 90%

COCCOc1c(S(C)(=O)=O)ccc(C(=O)c2cnn(C)c2O)c1C [Compound No. 2-27]
Growth inhibition rate (%) of crabgrass [5, 15]: 90%
Growth inhibition rate (%) of crabgrass [5, 18]: 78%
Growth inhibition rate (%) of crabgrass [5, 16]: 90%
Growth inhibition rate (%) of crabgrass [5, 13]: 94%
Growth inhibition rate (%) of velvetleaf [6, 15]: 80%
Growth inhibition rate (%) of velvetleaf [6, 18]: 63%
Growth inhibition rate (%) of velvetleaf [6, 16]: 95%
Growth inhibition rate (%) of velvetleaf [6, 13]: 70%

CCOC(=O)OC(C)Oc1c(C(=O)c2ccc(S(C)(=O)=O)c(OCCOC)c2C)cnn1CC (centres unmarked) [Compound No. 4-3]
Growth inhibition rate (%) of crabgrass [7, 15]: 83%
Growth inhibition rate (%) of crabgrass [7, 16]: 80%
Growth inhibition rate (%) of crabgrass [7, 19]: 85%
Growth inhibition rate (%) of crabgrass ([7]; surfactant PHOSPHANOL ML-240 0.05 vol %, present invention): 90%
Growth inhibition rate (%) of crabgrass [7, 17]: 80%
Growth inhibition rate (%) of crabgrass [7, 12]: 80%
Growth inhibition rate (%) of crabgrass ([7]; surfactant PHOSPHOLAN PS-236 0.05 vol %, present invention): 80%
Growth inhibition rate (%) of crabgrass [7, 13]: 98%
Growth inhibition rate (%) of crabgrass [7, 14]: 55%

CCSC(=O)Oc1c(C(=O)c2ccc(S(C)(=O)=O)c(OCCOC)c2C)cnn1C [Compound No. 53]
Growth inhibition rate (%) of crabgrass [8, 15]: 90%
Growth inhibition rate (%) of crabgrass [8, 18]: 50%
Growth inhibition rate (%) of crabgrass [8, 16]: 90%
Growth inhibition rate (%) of crabgrass [8, 13]: 78%
Growth inhibition rate (%) of velvetleaf [9, 15]: 93%
Growth inhibition rate (%) of velvetleaf [9, 18]: 78%
Growth inhibition rate (%) of velvetleaf [9, 16]: 98%
Growth inhibition rate (%) of velvetleaf [9, 13]: 90%

COCCOc1c(S(C)(=O)=O)ccc(C(=O)c2cnn(C)c2OC(=O)SC(C)(C)C)c1C [Compound No. 238]
Growth inhibition rate (%) of crabgrass ([10]; surfactant ADEKA COL PS-440E 0.05 vol %, present invention): 75%
Growth inhibition rate (%) of crabgrass ([10]; surfactant CITOWETT 0.3 vol %, comparison): 50%
Growth inhibition rate (%) of crabgrass [10, 16]: 90%
Growth inhibition rate (%) of crabgrass [10, 19]: 90%
Growth inhibition rate (%) of crabgrass ([10]; surfactant PHOSPHANOL RS710 0.05 vol %, present invention): 80%
Growth inhibition rate (%) of crabgrass [10, 13]: 90%
Growth inhibition rate (%) of crabgrass ([11]; fatty acid ester and emulsifying agent added): 83%
Growth inhibition rate (%) of crabgrass ([11]; fatty acid ester, hydrocarbon solvent and emulsifying agent added): 85%
Growth inhibition rate (%) of crabgrass ([11]; hydrocarbon solvent and emulsifying agent added): 83%
Growth inhibition rate (%) of crabgrass ([11]; no fatty acid ester, hydrocarbon solvent or emulsifying agent): 73%
